How the values were obtained:
KCNQ2/3 channels = KCNQ2/3 channels (Homo sapiens, UniProt O43525+O43526); assay: Two-electrode voltage-clamp of KCNQ2/3 channels expressed in Xenopus laevis oocytes; format: cell-based
Description: (§1) cRNA transcripts encoding human KCNA1, KCNQ1, KCNQ2, KCNQ3, KCNQ4, or KCNQ5 were generated by in vitro transcription using the T7 polymerase message machine kit (Thermo Fisher Scientific), after vector linearization, from cDNA sub-cloned into plasmids incorporating X. laevis β-globin 5′ and 3′ UTRs flanking the coding region to enhance translation and cRNA stability. cRNA was quantified by spectrophotometry. Mutant cDNAs were generated by site-directed mutagenesis using a QuikChange kit according to manufacturer’s protocol (Stratagene, San Diego, CA) and corresponding cRNAs prepared as above. Defolliculated stage V and VI X. laevis oocytes (Ecocyte Bioscience, Austin, TX) were injected with Kv channel α subunit cRNAs (10 ng total per oocyte). Oocytes were incubated at 16 °C in Barth’s saline solution (Ecocyte) containing penicillin and streptomycin, with daily washing, for 3–5 days prior to two-electrode voltage-clamp (TEVC) recording.
(§2) Oocytes were placed in a small-volume oocyte bath (Warner) and viewed with a dissection microscope. Chemicals were sourced from Sigma. Bath solution was (in mM): 96 NaCl, 4 KCl, 1 MgCl2, 1 CaCl2, 10 HEPES (pH 7.6). […] MTX (DMSO), sorbic acid (ethanol), and glutaconic acid (molecular grade H2O) were stored at −20 °C as 1 M stocks. Oleamide was stored as a 1 mM stock in ethanol at 4 °C. Palmitic acid was conjugated with bovine serum albumin as a 1 mM stock and stored at −20 °C. All compounds were diluted to working concentrations each experimental day. All compounds were introduced to the recording bath via gravity perfusion at a constant flow of 1 ml/min for 3 min prior to recording. Pipettes were of 1–2 MΩ resistance when filled with 3 M KCl. Currents were recorded in response to pulses between −80 and +40 mV at 20 mV intervals, or a single pulse to +40 mV, from a holding potential of −80 mV, to yield current–voltage relationships, current magnitude, and for quantifying activation rate. TEVC data analysis was performed with Clampfit10.2 (Molecular Devices) and Graphpad Prism software (GraphPad, San Diego, CA, USA); values are stated as mean ± SEM. Normalized tail currents were plotted versus prepulse voltage and fitted with a single Boltzmann function:1 g=A1-A2/1+expV12-Vy+A2, where g is the normalized tail conductance, A1 is the initial value at −∞, A2 is the final value at +∞, V1/2 is the half-maximal voltage of activation, and Vs the slope factor. Activation and deactivation kinetics were fitted with single-exponential functions.

KCNQ5 = KCNQ5 (Homo sapiens, UniProt Q9NR82); assay: cell-based; format: cell-based
Description: as §1, §2

W236L-Q2/Q3 channels = W236L-Q2/Q3 channels (Homo sapiens, UniProt O43525+O43526, W236L); assay: Two-electrode voltage-clamp of W236L-Q2/Q3 mutant channels in Xenopus oocytes; format: cell-based; conditions: for Non-normalized tail current V0.5 / Normalized tail current V0.5 / Slope: W236L-Q2/Q3
W236L-Q2/Q3 channels, sequence (O43525 whole entry): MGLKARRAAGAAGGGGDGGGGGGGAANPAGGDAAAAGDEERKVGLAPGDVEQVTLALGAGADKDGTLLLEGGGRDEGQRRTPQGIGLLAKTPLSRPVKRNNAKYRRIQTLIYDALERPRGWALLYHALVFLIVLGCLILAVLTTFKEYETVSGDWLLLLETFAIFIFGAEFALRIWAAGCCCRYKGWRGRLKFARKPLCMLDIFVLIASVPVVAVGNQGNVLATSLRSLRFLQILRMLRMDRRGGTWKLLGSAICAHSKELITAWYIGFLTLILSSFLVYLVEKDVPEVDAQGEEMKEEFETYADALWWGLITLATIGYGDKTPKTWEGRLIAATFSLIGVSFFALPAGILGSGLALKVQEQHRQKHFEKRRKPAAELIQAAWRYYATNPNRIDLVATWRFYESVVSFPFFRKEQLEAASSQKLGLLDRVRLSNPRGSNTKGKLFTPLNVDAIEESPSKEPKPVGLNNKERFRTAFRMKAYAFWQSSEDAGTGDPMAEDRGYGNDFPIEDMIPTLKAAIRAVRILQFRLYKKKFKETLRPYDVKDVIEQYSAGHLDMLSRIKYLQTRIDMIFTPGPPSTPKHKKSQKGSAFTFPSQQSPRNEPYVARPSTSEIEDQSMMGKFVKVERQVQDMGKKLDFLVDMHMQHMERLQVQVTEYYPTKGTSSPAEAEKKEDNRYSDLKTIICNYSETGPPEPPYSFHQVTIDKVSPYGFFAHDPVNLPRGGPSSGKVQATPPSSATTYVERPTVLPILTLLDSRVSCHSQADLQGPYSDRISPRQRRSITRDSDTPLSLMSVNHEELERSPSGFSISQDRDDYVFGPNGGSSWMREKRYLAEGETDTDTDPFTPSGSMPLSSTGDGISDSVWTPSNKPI
W236L-Q2/Q3 channels, sequence (O43526 whole entry W236L): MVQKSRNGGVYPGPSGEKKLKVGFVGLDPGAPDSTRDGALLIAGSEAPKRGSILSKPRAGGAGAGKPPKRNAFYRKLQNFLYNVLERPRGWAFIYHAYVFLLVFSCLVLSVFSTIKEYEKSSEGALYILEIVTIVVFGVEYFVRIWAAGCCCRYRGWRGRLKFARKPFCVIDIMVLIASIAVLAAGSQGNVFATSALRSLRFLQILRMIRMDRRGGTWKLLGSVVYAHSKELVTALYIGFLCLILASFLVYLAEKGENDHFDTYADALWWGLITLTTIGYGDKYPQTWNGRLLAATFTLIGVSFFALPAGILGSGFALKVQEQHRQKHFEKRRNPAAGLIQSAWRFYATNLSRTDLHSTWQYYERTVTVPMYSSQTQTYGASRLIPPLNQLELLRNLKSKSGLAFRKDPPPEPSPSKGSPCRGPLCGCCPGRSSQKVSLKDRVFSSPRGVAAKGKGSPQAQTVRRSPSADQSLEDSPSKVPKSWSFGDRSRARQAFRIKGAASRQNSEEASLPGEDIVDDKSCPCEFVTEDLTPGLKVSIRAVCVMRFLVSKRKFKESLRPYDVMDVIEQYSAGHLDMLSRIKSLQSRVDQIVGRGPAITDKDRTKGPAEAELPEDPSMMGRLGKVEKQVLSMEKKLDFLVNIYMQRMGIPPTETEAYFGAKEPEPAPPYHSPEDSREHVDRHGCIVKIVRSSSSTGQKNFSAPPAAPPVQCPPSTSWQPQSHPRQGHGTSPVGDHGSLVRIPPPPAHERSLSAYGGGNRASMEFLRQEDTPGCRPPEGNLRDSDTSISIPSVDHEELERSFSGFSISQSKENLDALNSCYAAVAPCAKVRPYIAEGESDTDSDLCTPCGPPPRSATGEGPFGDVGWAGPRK
Description: as §1, §2

[1] = rats fed Mallotus philippensis extract; cited from earlier work
[2] = KCNQ2/3, 30 µM, Supplementary Table 10
[3] = KCNQ2/3, 30 µM, Supplementary Table 11
[4] = KCNQ2/3, 30 µM, dose series (Supplementary Table 5)

For `CC(=O)c1c(O)c(C)c(O)c(Cc2c(O)c3c(c(C(=O)/C=C/c4ccccc4)c2O)OC(C)(C)C=C3)c1O` [MTX, mallotoxin], the “resting membrane potential (EM) of unclamped oocytes expressing KCNQ2/3” value (KCNQ2/3 channels) was “dose-dependently hyperpolarizes”, the “effects on KCNQ2/3” value (KCNQ2/3 channels; 1 µM alone) was “negligible effects” and the “effect on voltage dependence of KCNQ2/3 activation (initial screen)” value (KCNQ2/3 channels; 30 µM, tail currents at −30 mV) was “negative-shifted”. For the same compound, the “KCNQ2/3 current increase at −60 mV” value (KCNQ2/3 channels; 100 µM) was “seven-fold”, the “effect on KCNQ2/3 at +40 mV” value (KCNQ2/3 channels; +40 mV) was “little effect” and the EC50 (KCNQ2/3 channels; EC50, KCNQ2/3, current at −60 mV, calculated from dose responses) was 11.5 ± 0.2 µM. For the same compound, the “Non-normalized tail current V0.5” value (KCNQ2/3 channels; KCNQ2/3, 0.1 µM) was -47.3 ± 2.4 mV, the “Normalized tail current V0.5” value (KCNQ2/3 channels; KCNQ2/3, 0.1 µM) was -47.8 ± 0.5 mV and the Slope (KCNQ2/3 channels; KCNQ2/3, 0.1 µM) was 7.5 ± 0.4 mV. For the same compound, the “τ act, -40 mV” value (KCNQ2/3 channels; KCNQ2/3, 0.1 µM) was 684 ± 55 ms, the “τ deact, -80 mV” value (KCNQ2/3 channels; KCNQ2/3, 0.1 µM) was 236 ± 12 ms and the “Non-normalized tail current V0.5” value (KCNQ2/3 channels; KCNQ2/3, 1 µM) was -44.4 ± 4.9 mV. For the same compound, the “Normalized tail current V0.5” value (KCNQ2/3 channels; KCNQ2/3, 1 µM) was -47.0 ± 0.9 mV, the Slope (KCNQ2/3 channels; KCNQ2/3, 1 µM) was 7.4 ± 0.6 mV and the “τ act, -40 mV” value (KCNQ2/3 channels; KCNQ2/3, 1 µM) was 611 ± 46 ms. For the same compound, the “τ deact, -80 mV” value (KCNQ2/3 channels; KCNQ2/3, 1 µM) was 227 ± 20 ms, the “Non-normalized tail current V0.5” value (KCNQ2/3 channels; KCNQ2/3, 3 µM) was -47.3 ± 5.0 mV and the “Normalized tail current V0.5” value (KCNQ2/3 channels; KCNQ2/3, 3 µM) was -50.7 ± 1.0 mV. For the same compound, the Slope (KCNQ2/3 channels; KCNQ2/3, 3 µM) was 7.9 ± 0.8 mV, the “τ act, -40 mV” value (KCNQ2/3 channels; KCNQ2/3, 3 µM) was 530 ± 37 ms and the “τ deact, -80 mV” value (KCNQ2/3 channels; KCNQ2/3, 3 µM) was 259 ± 12 ms. The “Non-normalized tail current V0.5” value (KCNQ2/3 channels; KCNQ2/3, 10 µM) was -51.9 ± 4.8 mV, the “Normalized tail current V0.5” value (KCNQ2/3 channels; KCNQ2/3, 10 µM) was -56.2 ± 1.3 mV and the Slope (KCNQ2/3 channels; KCNQ2/3, 10 µM) was 6.8 ± 1.3 mV. For the same compound, the “τ act, -40 mV” value (KCNQ2/3 channels; KCNQ2/3, 10 µM) was 462 ± 34 ms, the “τ deact, -80 mV” value (KCNQ2/3 channels; KCNQ2/3, 10 µM) was 261 ± 7 ms and the “Non-normalized tail current V0.5” value (KCNQ2/3 channels; KCNQ2/3, 30 µM) was -54.9 ± 4.9 mV. The “Normalized tail current V0.5” value (KCNQ2/3 channels; KCNQ2/3, 30 µM) was -60.0 ± 1.8 mV, the Slope (KCNQ2/3 channels; KCNQ2/3, 30 µM) was 8.0 ± 1.8 mV and the “τ act, -20 mV” value (KCNQ2/3 channels; [2]) was 205 ± 6 ms. The “τ act, -40 mV” value (KCNQ2/3 channels; [2]) was 397 ± 26 ms, the “τ act, -60 mV” value (KCNQ2/3 channels; [2]) was 835 ± 51 ms and the “τ deact, -80 mV” value (KCNQ2/3 channels; [3]) was 143 ± 39 ms. For the same compound, the “τ deact, -90 mV” value (KCNQ2/3 channels; [3]) was 105 ± 4.2 ms, the “τ deact, -100 mV” value (KCNQ2/3 channels; [3]) was 77 ± 6.2 ms and the “τ deact, -110 mV” value (KCNQ2/3 channels; [3]) was 53 ± 3.5 ms. The “τ deact, -120 mV” value (KCNQ2/3 channels; [3]) was 36 ± 1.2 ms, the “τ act, -40 mV” value (KCNQ2/3 channels; [4]) was 403 ± 33 ms and the “τ deact, -80 mV” value (KCNQ2/3 channels; [4]) was 259 ± 18 ms. For the same compound, the “Non-normalized tail current V0.5” value (KCNQ2/3 channels; KCNQ2/3, 100 µM) was -56.6 ± 3.8 mV, the “Normalized tail current V0.5” value (KCNQ2/3 channels; KCNQ2/3, 100 µM) was -57.1 ± 0.6 mV and the Slope (KCNQ2/3 channels; KCNQ2/3, 100 µM) was 7.2 ± 0.5 mV. The “τ act, -40 mV” value (KCNQ2/3 channels; KCNQ2/3, 100 µM) was 403 ± 34 ms, the “τ deact, -80 mV” value (KCNQ2/3 channels; KCNQ2/3, 100 µM) was 415 ± 87 ms and the “shift in midpoint voltage dependence (V0.5) of activation” value (KCNQ2/3 channels; KCNQ2/3, MTX 30 µM) was −17 mV. For the same compound, the EC50 (KCNQ2/3 channels; V0.5 EC50, KCNQ2/3, calculated from shift in V0.5) was 4 ± 0.2 µM, the “KCNQ2/3 current increase at −60 mV” value (KCNQ2/3 channels; either component alone (MTX 30 µM; IVA 500 µM)) was “~ fivefold” and the “time to plateau of KCNQ2/3 activation after wash-in” value (KCNQ2/3 channels; −60 mV current) was 5 min. For the same compound, the EC50 (KCNQ5) was 67.1 µM, the “KCNQ5 current increase at −60 mV” value (KCNQ5; 100 µM) was “eight-fold” and the “Non-normalized tail current V0.5” value (KCNQ5; KCNQ5, 1 µM) was -49.3 ± 1.2 mV. The “Normalized tail current V0.5” value (KCNQ5; KCNQ5, 1 µM) was -49.9 ± 2.1 mV, the Slope (KCNQ5; KCNQ5, 1 µM) was 8.3 ± 2.1 mV and the “Non-normalized tail current V0.5” value (KCNQ5; KCNQ5, 3 µM) was -51.7 ± 1.8 mV. For the same compound, the “Normalized tail current V0.5” value (KCNQ5; KCNQ5, 3 µM) was -51.1 ± 2.3 mV, the Slope (KCNQ5; KCNQ5, 3 µM) was 8.5 ± 2.1 mV and the “Non-normalized tail current V0.5” value (KCNQ5; KCNQ5, 10 µM) was -51.9 ± 0.8 mV. The “Normalized tail current V0.5” value (KCNQ5; KCNQ5, 10 µM) was -51.5 ± 3.2 mV, the Slope (KCNQ5; KCNQ5, 10 µM) was 8.6 ± 2.9 mV and the “Non-normalized tail current V0.5” value (KCNQ5; KCNQ5, 30 µM) was -55.9 ± 0.8 mV. The “Normalized tail current V0.5” value (KCNQ5; KCNQ5, 30 µM) was -55.6 ± 3.8 mV, the Slope (KCNQ5; KCNQ5, 30 µM) was 8.8 ± 3.6 mV and the “shift in midpoint voltage of activation” value (KCNQ5; KCNQ5, 30 µM) was −14 mV. The “Non-normalized tail current V0.5” value (KCNQ5; KCNQ5, 100 µM) was -71.1 ± 2.6 mV, the “Normalized tail current V0.5” value (KCNQ5; KCNQ5, 100 µM) was -71.6 ± 2.1 mV and the EC50 (W236L-Q2/Q3 channels; EC50, W236L-Q2/Q3, calculated from dose responses) was 27 ± 0.6 µM. The EC50 (W236L-Q2/Q3 channels; V0.5 EC50, W236L-Q2/Q3, calculated from shift in V0.5) was 37.3 ± 0.2 µM, the “Non-normalized tail current V0.5” value (W236L-Q2/Q3 channels; 1 µM) was -55.7 ± 1.9 mV and the “Normalized tail current V0.5” value (W236L-Q2/Q3 channels; 1 µM) was -57.1 ± 0.9 mV. The Slope (W236L-Q2/Q3 channels; 1 µM) was 6.0 ± 0.7 mV, the “Non-normalized tail current V0.5” value (W236L-Q2/Q3 channels; 3 µM) was -55.4 ± 2.1 mV and the “Normalized tail current V0.5” value (W236L-Q2/Q3 channels; 3 µM) was -57.8 ± 1.3 mV. For the same compound, the Slope (W236L-Q2/Q3 channels; 3 µM) was 3.9 ± 2.2 mV, the “Non-normalized tail current V0.5” value (W236L-Q2/Q3 channels; 10 µM) was -57.3 ± 2.7 mV and the “Normalized tail current V0.5” value (W236L-Q2/Q3 channels; 10 µM) was -58.1 ± 0.9 mV. The Slope (W236L-Q2/Q3 channels; 10 µM) was 6.2 ± 0.7 mV, the “Non-normalized tail current V0.5” value (W236L-Q2/Q3 channels; 30 µM) was -61.9 ± 3.9 mV and the “Normalized tail current V0.5” value (W236L-Q2/Q3 channels; 30 µM) was -62.4 ± 1.3 mV. The Slope (W236L-Q2/Q3 channels; 30 µM) was 6.6 ± 0.9 mV, the “Non-normalized tail current V0.5” value (W236L-Q2/Q3 channels; 100 µM) was -67.9 ± 7.7 mV and the “Normalized tail current V0.5” value (W236L-Q2/Q3 channels; 100 µM) was -71.4 ± 4.5 mV. For the same compound, the Slope (W236L-Q2/Q3 channels; 100 µM) was 6.8 ± 1.2 mV, the Oral bioavailability [1] was over 20% and the plasma concentrations [1] was “exceeded 2 µg/ml”.

From article PMC6155021, “Ancient and modern anticonvulsants act synergistically in a KCNQ potassium channel binding pocket” (Nature Communications, 2018)
